Measurements published in PubChem BioAssay (NCI).
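Results reflect a 48-hour exposure of cells in 96-well plates to compound at five concentrations. GI50: concentration for 50% inhibition of growth. TGI marks complete inhibition of growth.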

Assays:
Test in all cases: NCI-60 cell line screen, 48 h
CAKI-1 renal = test system: CAKI-1 renal
NCI-H522 lung = test system: NCI-H522 lung
HT29 colon = test system: HT29 colon
NCI/ADR-RES ovarian = test system: NCI/ADR-RES ovarian
NCI-H226 lung = test system: NCI-H226 lung
786-0 renal = test system: 786-0 renal
SF-295 CNS = test system: SF-295 CNS
OVCAR-4 ovarian = test system: OVCAR-4 ovarian
T-47D breast = test system: T-47D breast
SN12C renal = test system: SN12C renal
NCI-H460 lung = test system: NCI-H460 lung
PC-3 prostate = test system: PC-3 prostate
LOX IMVI melanoma = test system: LOX IMVI melanoma
SR leukemia = test system: SR leukemia
RPMI-8226 leukemia = test system: RPMI-8226 leukemia
MALME-3M melanoma = test system: MALME-3M melanoma
K-562 leukemia = test system: K-562 leukemia
SNB-19 CNS = test system: SNB-19 CNS
TK-10 renal = test system: TK-10 renal
ACHN renal = test system: ACHN renal
HOP-62 NSCLC = test system: HOP-62 NSCLC
CCRF-CEM leukemia = test system: CCRF-CEM leukemia
UO-31 renal = test system: UO-31 renal
KM12 colon = test system: KM12 colon
OVCAR-5 ovarian = test system: OVCAR-5 ovarian
IGROV1 ovarian = test system: IGROV1 ovarian
M14 melanoma = test system: M14 melanoma
UACC-257 melanoma = test system: UACC-257 melanoma
COLO 205 colon = test system: COLO 205 colon
SF-539 CNS = test system: SF-539 CNS
SW-620 colon = test system: SW-620 colon
NCI-H23 lung = test system: NCI-H23 lung
MOLT-4 leukemia = test system: MOLT-4 leukemia
SK-MEL-2 melanoma = test system: SK-MEL-2 melanoma
DU-145 prostate = test system: DU-145 prostate
SF-268 CNS = test system: SF-268 CNS
OVCAR-3 ovarian = test system: OVCAR-3 ovarian
SK-MEL-5 melanoma = test system: SK-MEL-5 melanoma
BT-549 breast = test system: BT-549 breast
SK-MEL-28 melanoma = test system: SK-MEL-28 melanoma
HS 578T breast = test system: HS 578T breast
SK-OV-3 ovarian = test system: SK-OV-3 ovarian
HCT-15 colon = test system: HCT-15 colon
EKVX NSCLC = test system: EKVX NSCLC
U251 CNS = test system: U251 CNS
SNB-75 CNS = test system: SNB-75 CNS
HCT-116 colon = test system: HCT-116 colon
HOP-92 NSCLC = test system: HOP-92 NSCLC
MDA-MB-435 = test system: MDA-MB-435
UACC-62 melanoma = test system: UACC-62 melanoma
A498 renal = test system: A498 renal
OVCAR-8 ovarian = test system: OVCAR-8 ovarian
RXF 393 renal = test system: RXF 393 renal
A549 NSCLC = test system: A549 NSCLC
MDA-MB-231 breast = test system: MDA-MB-231 breast
HCC-2998 colon = test system: HCC-2998 colon
MCF7 breast = test system: MCF7 breast

Structure (SMILES): COc1cc(OC)c(C(=O)/C=C/c2ccc(C#N)cc2)c(OC)c1
- GI50 (CAKI-1 renal): 1730 nM
- TGI (CAKI-1 renal): 8.78 µM
- GI50 (NCI-H522 lung): 1040 nM
- TGI (NCI-H522 lung): 2920 nM
- GI50 (HT29 colon): 1880 nM
- TGI (HT29 colon): 8.28 µM
- GI50 (NCI/ADR-RES ovarian): 1400 nM
- TGI (NCI/ADR-RES ovarian): > 50 µM
- GI50 (NCI-H226 lung): 2670 nM
- TGI (NCI-H226 lung): > 50 µM
- GI50 (786-0 renal): 1860 nM
- TGI (786-0 renal): 6.88 µM
- GI50 (SF-295 CNS): 1720 nM
- TGI (SF-295 CNS): 8.81 µM
- GI50 (OVCAR-4 ovarian): 1630 nM
- TGI (OVCAR-4 ovarian): > 50 µM
- GI50 (T-47D breast): 1210 nM
- TGI (T-47D breast): 7.81 µM
- GI50 (SN12C renal): 1820 nM
- TGI (SN12C renal): 7.91 µM
- GI50 (NCI-H460 lung): 1350 nM
- TGI (NCI-H460 lung): 3.94 µM
- GI50 (PC-3 prostate): 1720 nM
- TGI (PC-3 prostate): 6.87 µM
- GI50 (LOX IMVI melanoma): 1370 nM
- TGI (LOX IMVI melanoma): 5.47 µM
- GI50 (SR leukemia): 813 nM
- TGI (SR leukemia): > 50 µM
- GI50 (RPMI-8226 leukemia): 1290 nM
- TGI (RPMI-8226 leukemia): 4.92 µM
- GI50 (MALME-3M melanoma): 2230 nM
- TGI (MALME-3M melanoma): 10.3 µM
- GI50 (K-562 leukemia): 1540 nM
- TGI (K-562 leukemia): > 50 µM
- GI50 (SNB-19 CNS): 1840 nM
- TGI (SNB-19 CNS): 6.87 µM
- GI50 (TK-10 renal): 1710 nM
- TGI (TK-10 renal): 24 µM
- GI50 (ACHN renal): 1290 nM
- TGI (ACHN renal): 4.74 µM
- GI50 (HOP-62 NSCLC): 1440 nM
- TGI (HOP-62 NSCLC): 4.24 µM
- GI50 (CCRF-CEM leukemia): 1370 nM
- TGI (CCRF-CEM leukemia): 15 µM
- GI50 (UO-31 renal): 1290 nM
- TGI (UO-31 renal): 6.26 µM
- GI50 (KM12 colon): 1580 nM
- TGI (KM12 colon): 6.55 µM
- GI50 (OVCAR-5 ovarian): 2130 nM
- TGI (OVCAR-5 ovarian): 8.4 µM
- GI50 (IGROV1 ovarian): 1560 nM
- TGI (IGROV1 ovarian): 7.75 µM
- GI50 (M14 melanoma): 1070 nM
- TGI (M14 melanoma): 3.15 µM
- GI50 (UACC-257 melanoma): 3.35 µM
- TGI (UACC-257 melanoma): 42.2 µM
- GI50 (COLO 205 colon): 1820 nM
- TGI (COLO 205 colon): 7.38 µM
- GI50 (SF-539 CNS): 1280 nM
- TGI (SF-539 CNS): 3.85 µM
- GI50 (SW-620 colon): 1840 nM
- TGI (SW-620 colon): 7.22 µM
- GI50 (NCI-H23 lung): 1570 nM
- TGI (NCI-H23 lung): 11.6 µM
- GI50 (MOLT-4 leukemia): 1440 nM
- TGI (MOLT-4 leukemia): 13 µM
- GI50 (SK-MEL-2 melanoma): 1460 nM
- TGI (SK-MEL-2 melanoma): 4.43 µM
- GI50 (DU-145 prostate): 1540 nM
- TGI (DU-145 prostate): 6.27 µM
- GI50 (SF-268 CNS): 1970 nM
- TGI (SF-268 CNS): 46.5 µM
- GI50 (OVCAR-3 ovarian): 1770 nM
- TGI (OVCAR-3 ovarian): 7.93 µM
- GI50 (SK-MEL-5 melanoma): 1970 nM
- TGI (SK-MEL-5 melanoma): 6.95 µM
- GI50 (BT-549 breast): 1300 nM
- TGI (BT-549 breast): 5.11 µM
- GI50 (SK-MEL-28 melanoma): 1920 nM
- TGI (SK-MEL-28 melanoma): 7.61 µM
- GI50 (HS 578T breast): 1930 nM
- TGI (HS 578T breast): > 50 µM
- GI50 (SK-OV-3 ovarian): 2050 nM
- TGI (SK-OV-3 ovarian): > 50 µM
- GI50 (HCT-15 colon): 1050 nM
- TGI (HCT-15 colon): 4.19 µM
- GI50 (EKVX NSCLC): 2070 nM
- TGI (EKVX NSCLC): > 50 µM
- GI50 (U251 CNS): 1810 nM
- TGI (U251 CNS): 7.05 µM
- GI50 (SNB-75 CNS): 1270 nM
- TGI (SNB-75 CNS): 6.62 µM
- GI50 (HCT-116 colon): 1070 nM
- TGI (HCT-116 colon): 3.82 µM
- GI50 (HOP-92 NSCLC): 1340 nM
- TGI (HOP-92 NSCLC): 4.96 µM
- GI50 (MDA-MB-435): 1320 nM
- TGI (MDA-MB-435): 6.69 µM
- GI50 (UACC-62 melanoma): 1450 nM
- TGI (UACC-62 melanoma): 5.78 µM
- GI50 (A498 renal): 1330 nM
- TGI (A498 renal): 3.95 µM
- GI50 (OVCAR-8 ovarian): 1980 nM
- TGI (OVCAR-8 ovarian): > 50 µM
- GI50 (RXF 393 renal): 1390 nM
- TGI (RXF 393 renal): 4.23 µM
- GI50 (A549 NSCLC): 1850 nM
- TGI (A549 NSCLC): > 50 µM
- GI50 (MDA-MB-231 breast): 2310 nM
- TGI (MDA-MB-231 breast): 9.32 µM
- GI50 (HCC-2998 colon): 1900 nM
- TGI (HCC-2998 colon): 6.51 µM
- GI50 (MCF7 breast): 1490 nM
- TGI (MCF7 breast): > 50 µM
